Reference: patent US20260262643A1, “HERBICIDAL BENZOXAZINES” (FMC CORPORATION, priority 2022, published 2026)
Read-outs that look alike come from different tables or passages of the source.

Tests used:
[1] = tested on: oat, wild; assay: Test A preemergence; format: in vivo, Avena fatua; conditions: Avena fatua, pre-emergence, 240 h, read-out: Plant response rating, Oat, Wild; for pest or weed control at 125 g/ha: 125 g ai/ha; for pest or weed control at 500 g/ha: 500 g ai/ha
Procedure, shortened: (§1)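 Seeds in loam–sand blend received a directed preemergence soil spray of compound in non-phytotoxic solvent with surfactant; postemergence plants (2–10 cm, one- to two-leaf stage) were sprayed with the same formulation. After 10 days in greenhouse, injury was rated visually versus untreated controls, 0 (no effect) to 100 (complete control).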

[2] = tested on: ryegrass, Italian; assay: Test A postemergence; format: in vivo, Lolium multiflorum; conditions: Lolium multiflorum, post-emergence, 240 h, postemergence, 10 days, 0 to 100 scale (0 no effect, 100 complete control); for pest or weed control at 500 g/ha: 500 g ai/ha, visual injury, read-out: Plant response rating, Ryegrass, Italian; for pest or weed control at 125 g/ha: 125 g ai/ha, read-out: Ryegrass, Italian plant response rating
Procedure, shortened: as §1

[3] = tested on: sedge, umbrella; assay: Test B flooded paddy test; format: in vivo, Cyperus difformis; conditions: Cyperus difformis, 312 h; 250 g ai/ha, Flood, 13 days, 0 to 100 scale (0 no effect, 100 complete control); read-out: Plant response rating, Sedge, Umbrella
Procedure, shortened: (§2)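 Visual scores from 0 (no effect) to 100 (complete kill) were assigned 13 days after treatment by comparison with controls. Seedlings had been treated at two leaves by adding compound to floodwater standing 3 cm deep, kept at that level in the greenhouse.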

[4] = tested on: wheat; assay: Test A postemergence; format: in vivo, Triticum aestivum; conditions: Triticum aestivum, post-emergence, 240 h, postemergence, 10 days, 0 to 100 scale (0 no effect, 100 complete control); for plant injury at 500 g/ha: 500 g ai/ha, visual injury, read-out: Plant response rating, Wheat; for plant injury at 125 g/ha: 125 g ai/ha, read-out: Wheat plant response rating
Procedure, shortened: as §1

[5] = tested on: kochia; assay: Test A preemergence; format: in vivo, Bassia scoparia; conditions: Bassia scoparia, pre-emergence, 240 h, read-out: Plant response rating, Kochia; for pest or weed control at 125 g/ha: 125 g ai/ha; for pest or weed control at 500 g/ha: 500 g ai/ha
Procedure, shortened: as §1

[6] = tested on: rice; assay: Test B flooded paddy test; format: in vivo, Oryza sativa; conditions: Oryza sativa, 312 h; 250 g ai/ha, Flood, 13 days, 0 to 100 scale (0 no effect, 100 complete control); read-out: Plant response rating, Rice
Procedure, shortened: as §2

[7] = tested on: goosegrass; assay: Test A postemergence; format: in vivo, Eleusine indica; conditions: Eleusine indica, post-emergence, 240 h, postemergence, 10 days, 0 to 100 scale (0 no effect, 100 complete control); for pest or weed control at 125 g/ha: 125 g ai/ha; for pest or weed control at 500 g/ha: 500 g ai/ha
Procedure, shortened: as §1

[8] = tested on: goosegrass; assay: Test A preemergence; format: in vivo, Eleusine indica; conditions: Eleusine indica, pre-emergence, 240 h, read-out: Plant response rating, Goosegrass; for pest or weed control at 125 g/ha: 125 g ai/ha; for pest or weed control at 500 g/ha: 500 g ai/ha
Procedure, shortened: as §1

[9] = tested on: blackgrass; assay: Test A preemergence; format: in vivo, Alopecurus myosuroides; conditions: Alopecurus myosuroides, pre-emergence, 240 h, read-out: Plant response rating, Blackgrass; for pest or weed control at 125 g/ha: 125 g ai/ha; for pest or weed control at 500 g/ha: 500 g ai/ha
Procedure, shortened: as §1

[10] = tested on: blackgrass; assay: Test A postemergence; format: in vivo, Alopecurus myosuroides; conditions: Alopecurus myosuroides, post-emergence, 240 h; for pest or weed control at 125 g/ha: 125 g ai/ha; for pest or weed control at 500 g/ha: 500 g ai/ha
Procedure, shortened: as §1

[11] = tested on: oat, wild; assay: Test A postemergence; format: in vivo, Avena fatua; conditions: Avena fatua, post-emergence, 240 h, postemergence, 10 days, 0 to 100 scale (0 no effect, 100 complete control); for pest or weed control at 500 g/ha: 500 g ai/ha, visual injury, read-out: Plant response rating, Oat, Wild; for pest or weed control at 125 g/ha: 125 g ai/ha, read-out: Oat, Wild plant response rating
Procedure, shortened: as §1

[12] = tested on: soybean; assay: Test A preemergence; format: in vivo, Glycine max; conditions: Glycine max, pre-emergence, 240 h, read-out: Plant response rating, Soybean; for plant injury at 125 g/ha: 125 g ai/ha; for plant injury at 500 g/ha: 500 g ai/ha
Procedure, shortened: as §1

[13] = tested on: galium; assay: Test A postemergence; format: in vivo, Galium aparine; conditions: Galium, post-emergence, 240 h, postemergence, 10 days, 0 to 100 scale (0 no effect, 100 complete control); for pest or weed control at 125 g/ha: 125 g ai/ha; for pest or weed control at 500 g/ha: 500 g ai/ha
Procedure, shortened: as §1

[14] = tested on: ducksalad; assay: Test B flooded paddy test; format: in vivo, Heteranthera limosa; conditions: Heteranthera limosa, 312 h, 250 g ai/ha, Flood, 13 days, 0 to 100 scale (0 no effect, 100 complete control); read-out: Plant response rating, Ducksalad
Procedure, shortened: as §2

[15] = visual injury after 10 days, 0 to 100 scale, 0 is no effect, 100 is complete control
[16] = 0 to 100 scale (0 no effect, 100 complete control), 10 days
[17] = visual injury, read-out: Plant response rating, Goosegrass
[18] = postemergence, 10 days, visual injury, 0 to 100 scale (0 no effect, 100 complete control), read-out: Plant response rating, Blackgrass
[19] = Postemergence, 0 to 100 scale, read-out: Plant response rating, Blackgrass
[20] = visual injury, read-out: Plant response rating, Galium
[21] = read-out: Goosegrass plant response rating
[22] = postemergence, 10 days, 0 to 100 scale (0 no effect, 100 complete control), read-out: Blackgrass plant response rating

| SMILES | pest or weed control at 125 g/ha [1, 15] [%] | pest or weed control at 500 g/ha [1, 16] [%] | pest or weed control at 500 g/ha [2] [%] | pest or weed control at 250 g/ha [3] [%] | plant injury at 500 g/ha [4] [%] | pest or weed control at 125 g/ha [5, 15] [%] | pest or weed control at 500 g/ha [5, 16] [%] | plant injury at 250 g/ha [6] [%] | pest or weed control at 500 g/ha [7, 17] [%] | pest or weed control at 125 g/ha [8, 15] [%] | pest or weed control at 500 g/ha [8, 16] [%] | pest or weed control at 125 g/ha [9, 15] [%] | pest or weed control at 500 g/ha [9, 16] [%] | pest or weed control at 500 g/ha [10, 19] [%] | pest or weed control at 500 g/ha [11] [%] | plant injury at 125 g/ha [12, 15] [%] | plant injury at 500 g/ha [12, 16] [%] | pest or weed control at 500 g/ha [13, 20] [%] | pest or weed control at 250 g/ha [14] [%] | pest or weed control at 125 g/ha [2] [%] | other results |
| --- | --- | --- | --- | --- | --- | --- | --- | --- | --- | --- | --- | --- | --- | --- | --- | --- | --- | --- | --- | --- | --- |
| Cc1ncn(-c2ccc(C)c(C(=O)N3C[C@H](C)Oc4c(Cl)cccc43)c2)n1 (single isomer, unassigned) [Compound 74] | 60 | 90 | 100 | 95 | 80 | 40 | 100 | 20 | 0 | 100 | 100 | 70 | 90 | 90 | 60 | 70 | 100 | 100 | 60 |  | pest or weed control at 125 g/ha [7, 17]: 0%; pest or weed control at 125 g/ha [10, 18]: 70%; pest or weed control at 125 g/ha [13, 20]: 100% |
| C[C@H]1CN(C(=O)c2cccc(-c3cnn(C)n3)c2)c2cccc(Cl)c2O1 [Compound 127, [(2S)-8-Chloro-2,3-dihydro-2-methyl-4H-1,4-benzoxazin-4-yl][3-(2-methyl-2H-1,2,3-triazol-4-yl)phenyl]methanone] | 0 |  | 50 | 0 | 20 | 0 |  | 0 | 70 | 60 |  | 20 |  |  | 10 | 0 |  | 100 | 0 | 10 | pest or weed control at 500 g/ha [1, 15]: 20%; plant injury at 125 g/ha [4]: 10%; pest or weed control at 500 g/ha [5, 15]: 60%; pest or weed control at 125 g/ha [7, 21]: 10%; pest or weed control at 500 g/ha [8, 15]: 100%; pest or weed control at 500 g/ha [9, 15]: 70%; pest or weed control at 125 g/ha [10, 22]: 0%; pest or weed control at 500 g/ha [10, 18]: 80%; pest or weed control at 125 g/ha [11]: 0%; plant injury at 500 g/ha [12, 15]: 0%; pest or weed control at 125 g/ha ([13]; read-out: Galium plant response rating): 60% |
| Cc1cccc2c1O[C@@H](C)CN2C(=O)c1cccc(-n2cnc(C3CCCC3)n2)c1 [Compound 80, [3-(3-Cyclopentyl-1H-1,2,4-triazol-1-yl)phenyl][(2S)-2,3-dihydro-2,8-dimethyl-4H-1,4-benzoxazin-4-yl]methanone] | 0 | 10 | 70 | 0 | 10 | 10 | 80 | 0 | 30 | 90 | 100 | 20 | 40 | 40 | 20 | 0 | 0 |  | 0 | 20 | plant injury at 125 g/ha [4]: 10%; pest or weed control at 125 g/ha [7, 21]: 10%; pest or weed control at 125 g/ha [10, 22]: 0%; pest or weed control at 125 g/ha [11]: 0% |
